Experimental data as given in article PMC4302236, “Functional profile of a novel modulator of serotonin, dopamine, and glutamate neurotransmission” (Psychopharmacology, 2014).

Target: T1, Dopamine, D4 (Homo sapiens, UniProt P21917)
T1 sequence (P21917 1-419): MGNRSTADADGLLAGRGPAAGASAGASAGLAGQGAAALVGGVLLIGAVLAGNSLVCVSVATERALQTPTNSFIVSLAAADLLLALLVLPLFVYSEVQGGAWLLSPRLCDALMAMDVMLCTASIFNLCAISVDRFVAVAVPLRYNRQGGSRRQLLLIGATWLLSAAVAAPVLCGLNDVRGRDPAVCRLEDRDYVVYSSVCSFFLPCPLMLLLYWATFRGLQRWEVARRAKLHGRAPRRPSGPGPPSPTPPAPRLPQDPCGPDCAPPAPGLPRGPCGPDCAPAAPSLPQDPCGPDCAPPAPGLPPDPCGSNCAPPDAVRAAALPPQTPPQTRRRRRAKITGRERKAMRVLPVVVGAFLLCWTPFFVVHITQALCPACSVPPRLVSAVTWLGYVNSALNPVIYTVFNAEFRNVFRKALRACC
Assay: NovaScreen broad selectivity panel at 100 nM, Dopamine D4
Details: average of replicate tubes, read-out: % Inhibition of binding at 100 nM concentration, Dopamine D4
Experimental: Binding activity at a variety of receptor targets, including recombinant human serotonin receptors and rat dopamine D2 and human recombinant dopamine D4 receptors, was measured in vitro using standard radioligand displacement methods (NovaScreen/Caliper/Perkin-Elmer, Hanover, MD), to determine affinity. […] D2 receptor binding was measured at rat recombinant receptors expressed in Chinese hamster ovary (CHO) cells and using ^3H-methylspiperone as a radioligand and in rat striatum using ^3H-sulpiride as a radioligand. […] D4 receptor binding was measured at human recombinant receptor s expressed in CHO cells and using ^3 H-methylspiperone as a radioligand. D1 receptor binding at human recombinant receptor was measured in CHO cells using ^3H-SCH23390 as a radioligand. 5-HT2C receptor binding was measured in pig choroid plexus using ^3 H-methylsergide as a radioligand. Binding to alpha adrenergic receptors in the rat frontal cortex (alpha1A) or rat liver (alpha1B) was measured using ^3H-prazosin as a radioligand. Histamine H1 receptor binding was measured in bovine cere- bellum using ^3H-pyrilamine as a radioligand. […] The affinity constant (Ki) for each receptor subtype or inhibitory concentration 50 (IC50) for inhibition in functional assays was calculated.

CN1CCN2c3c(cccc31)[C@@H]1CN(CCCC(=O)c3ccc(F)cc3)CC[C@@H]12 [ITI-007, 1-(4-fluoro-phenyl)-4-((6bR,10aS)-3-methyl-2,3,6b,9,10,10a-hexahydro-1H,7H-pyrido[3′,4′:4,5]pyrrolo[1,2,3-de]quinoxalin-8-yl)-butan-1-one]
inhibition at 0.1 µM: 64.3%
